Columns and labels:
cyclooxygenase = target: T1, cyclooxygenase (Bos taurus, UniProt O62664); experiment: Cyclooxygenase Enzyme Assay, bovine seminal vesicle (BSV), PGE2 formation; type: biochemical; conditions: bovine seminal vesicle powder; 100 μM arachidonic acid, 20 minutes
T1 construct: The assay consists of incubating 2 mg bovine seminal vesicle powder; from tissue; host or cells: bovine seminal vesicle powder
T1 sequence (O62664 25-600): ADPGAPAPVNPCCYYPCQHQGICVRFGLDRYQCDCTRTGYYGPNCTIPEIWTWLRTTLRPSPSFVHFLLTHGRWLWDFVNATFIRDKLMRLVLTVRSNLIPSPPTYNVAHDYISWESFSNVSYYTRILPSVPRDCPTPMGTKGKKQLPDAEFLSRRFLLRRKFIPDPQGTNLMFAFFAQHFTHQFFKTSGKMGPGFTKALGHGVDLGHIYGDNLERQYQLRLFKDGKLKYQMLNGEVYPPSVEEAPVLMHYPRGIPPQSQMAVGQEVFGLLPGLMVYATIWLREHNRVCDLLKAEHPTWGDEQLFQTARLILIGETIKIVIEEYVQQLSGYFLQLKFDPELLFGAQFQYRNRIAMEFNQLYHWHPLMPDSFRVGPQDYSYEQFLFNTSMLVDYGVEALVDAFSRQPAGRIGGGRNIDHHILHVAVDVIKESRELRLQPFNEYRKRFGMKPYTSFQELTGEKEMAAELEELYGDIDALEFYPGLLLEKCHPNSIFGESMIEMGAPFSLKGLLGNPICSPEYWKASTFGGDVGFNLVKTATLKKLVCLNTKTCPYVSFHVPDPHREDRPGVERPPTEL
Experimental: Cyclooxygenase Enzyme Assay
Additionally, inhibition of cyclooxygenase is considered a measure of relevance to the pathophysiology of the above noted diseases.
The assay consists of incubating 2 mg bovine seminal vesicle powder with 2 mM epinephrine, 2.5 mM reduced glutathione, 100 μM arachidonic acid, and the test agent for 20 minutes. The reaction mixture is acidified and extracted with ethyl acetate (3×1.0 ml) and the pooled extract is evaporated to dryness using a Speed Vac Concentrator or under a stream of nitrogen. The residue was dissolved in ethanol.

5-lipoxygenase = target: T2, 5-lipoxygenase (Rattus norvegicus, UniProt P12527); experiment: ARBL Whole Cell 5-Lipoxygenase Assay in RBL-1 cells (LTB4 RIA); type: cell-based; conditions: RBL-1 intact cell 5-lipoxygenase; A23187 5 μM
T2 construct: ARBL/ARBC Whole Cell 5-Lipoxygenase and Cyclooxygenase Assays; endogenous in cells; host or cells: RBL-1 rat basophilic leukemia cells (American Type Culture Collection)
T2 sequence (P12527 1-673): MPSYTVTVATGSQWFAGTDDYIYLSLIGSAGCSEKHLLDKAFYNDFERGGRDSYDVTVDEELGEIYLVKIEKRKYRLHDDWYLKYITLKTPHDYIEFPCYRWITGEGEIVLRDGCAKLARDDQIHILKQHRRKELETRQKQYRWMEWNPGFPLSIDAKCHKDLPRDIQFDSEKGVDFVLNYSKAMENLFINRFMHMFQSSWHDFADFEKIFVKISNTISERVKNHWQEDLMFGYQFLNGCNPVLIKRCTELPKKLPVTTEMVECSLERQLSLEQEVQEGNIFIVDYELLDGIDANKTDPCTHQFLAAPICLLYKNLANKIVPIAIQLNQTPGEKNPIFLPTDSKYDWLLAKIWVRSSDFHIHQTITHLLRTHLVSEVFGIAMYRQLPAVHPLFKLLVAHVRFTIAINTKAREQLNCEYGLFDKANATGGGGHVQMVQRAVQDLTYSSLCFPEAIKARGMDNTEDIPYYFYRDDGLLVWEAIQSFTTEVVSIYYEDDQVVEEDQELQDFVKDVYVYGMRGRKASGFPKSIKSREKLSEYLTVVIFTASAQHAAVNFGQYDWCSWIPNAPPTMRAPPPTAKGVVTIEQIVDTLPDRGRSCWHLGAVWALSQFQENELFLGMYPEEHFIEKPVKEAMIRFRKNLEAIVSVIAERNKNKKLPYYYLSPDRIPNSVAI
Experimental: ARBL/ARBC Whole Cell 5-Lipoxygenase and Cyclooxygenase Assays
The rat basophilic leukemia cell line (RBL-1) was obtained from the American Type Culture Collection (Rockville, Md.).
Radioimmuno assay (RIA) kits of LTB4 and PGF2α were obtained from Amersham (Arlington Heights, Ill.) and Seragen (Boston, Mass.) respectively.
All tissue culture media were obtained from GIBO (Gran Island, N.Y.).
RBL-1 cells were grown in culture (suspension) in Eagle's minimum essential medium supplemented with 12% fetal bovine serum and 1:100 antibiotic-antimycotic mixture at 37° C. in an incubator supplied with air-5% carbon dioxide. Cells were harvested by centrifugation. They were washed with cold phosphate buffered saline pH 7.4 (PBS; NaCl, 7.1 g; Na2 HOP4, 1.15 g; KH2 PO4, 0.2 g; and KCl, 0.2 g/L). […] Calcium ionophore A23187 (5 μM) was added and cells were incubated for seven minutes at 37° C. The reaction was stopped by chilling the tubes in ice for ten minutes. Cells were separated by centrifugation and the supernatant was stored at -20°. Aliquots (100 μl) were analyzed for LTB4 and PGF2α using radioimmuno assay kits as provided by the supplier.

IC50 (cyclooxygenase) | IC50 (5-lipoxygenase) | SMILES
34 µM | 9.5 µM | Cc1cc(C=Cc2ccc(O)c(Cl)c2)n[nH]1 [Example 7, 3-[β-(4'-Hydroxy-3'-chlorophenyl)ethenyl]-5-methylpyrazole]
66 µM | 1.6 µM | COc1cc(C=Cc2cc(C=Cc3ccc(O)c(OC)c3)[nH]n2)ccc1O [Example 1, 3,5-Bis[β-(4'-hydroxy-3'-methoxyphenyl)ethenyl]pyrazole]
33 µM | 0.8 µM | COc1cc(C=Cc2cc(C)n[nH]2)ccc1O [Example 5, 3-[β-(4'-Hydroxy-3'-methoxyphenyl)ethenyl]-5-methylpyrazole]

From patent US4877881A, “Process of preparing pyrazoles, isoxazoles and analogs thereof having activity as 5-lipoxygenase inhibitors” (Warner-Lambert Company, priority 1988, dated 1989)
